Laboratory results: ChEMBL document CHEMBL3507680, “University of Dundee, Gates Library screen for HepG2 cell viability”

Assay: Human HepG2 cell viability assay in 384 well format
Assay type: toxicity, cell-based
Design: dose 125 nL, time 70.5 hour; cytotoxicity at 70.5 h: concentration not given beside the values
Conditions: HepG2 cells, read-out: Inhibition

Row | SMILES | cytotoxicity at 70.5 h
1 | N#Cc1cccnc1NCCc1cc(F)cc2c1OCOC2 | 24%
2 | CCN(Cc1nccn1C)C(=O)c1ccc(NCCc2c[nH]cn2)nc1 | 4.71%
3 | CCO[C@@H]1CO[C@@]2(CCCN(C(=O)c3ccc(OC)c(F)c3)C2)C1 | 9.35%
4 | COc1ccc2c(c1)C(C(=O)N(C)CCc1scnc1C)CC(=O)N2 (stereo not given) | -5.27%
5 | Cc1noc2nc(C3CCN(Cc4cccnc4)CC3)cc(C(F)F)c12 | -3.96%
6 | CCc1ccc2nc(C)cc(C(=O)NC3CCCCNC3=O)c2c1 (stereo not given) | 1.7%
7 | COc1ccc(Cl)cc1CS(=O)(=O)Cc1nc(C2CC2)no1 | -5.91%
8 | Cc1nccn1-c1cccc(C2CCCN2)n1 (stereo not given) | -13.4%
9 | Cc1cc(NC(=O)N2CCC[C@@H]2CO)nn1-c1cccc(Cl)c1 | -8.23%
10 | CCC(CC)(CN)NC(C)c1ccccc1 (stereo not given) | -7.08%
11 | COc1cccc(CNC(=O)c2nc3c(s2)CCN(C(C)=O)CC3)c1 | -11%
12 | CC(C)CNC(=O)C1(Cc2ccccc2-c2ccccc2)CCNC1 (stereo not given) | -3.17%
13 | Cc1ncsc1CN(Cc1ccccc1)Cc1ccncc1 | 8.23%
14 | Cc1cnn(CC2CN(Cc3cccc(C(=O)N(C)C)c3)CCO2)c1 (stereo not given) | 3.78%
15 | CCS(=O)(=O)N1CCC(c2nnc(CN3CCCCC3)n2C)CC1 | -3.65%
16 | Cc1cnc(CC2COCCN(C(=O)c3cncnc3)C2)cn1 (stereo not given) | -5.02%
17 | COCCn1ccnc1C1CCCN(C(=O)CSc2nnc(C)o2)C1 (stereo not given) | -5.99%
18 | COCC(=O)N1CCc2nc(C(=O)N(C)C)sc2CC1 | 27.3%
19 | COc1ccc(CN2CCOC[C@H](OCc3ccccc3)C2)cc1 | -8.76%
20 | CCn1ccc(-c2nnc(SCC(=O)NCC(C)C)n2CC)n1 | -10.3%
21 | Cc1nn(C)c(Oc2cccnc2)c1NC(=O)C1CCCO1 (stereo not given) | -3.71%
22 | CCc1nccn1C1CCCN(C(=O)c2cc[nH]n2)C1 (stereo not given) | -1.71%
23 | N#Cc1c(SCCN2CCCCC2)sc2c(O)cc(O)nc12 | 17.9%

Row | SMILES | cytotoxicity at 70.5 h
24 | COc1ccc(C(=O)N2CCCC(n3cncn3)C2)nn1 (stereo not given) | 10.5%
25 | Cc1nc(CN2CCCN(Cc3nccn3C(C)C)CC2)no1 | -15.2%
26 | Cc1csc2c(C3CCN(CCCOc4ccccc4)CC3)nc(C)n12 | -0.478%
27 | O=C(NC1CCN(c2ncccn2)CC1)c1cc2c(cc1O)CCCC2 | 6.37%
28 | COc1cc(C#N)ccc1OCC(=O)NS(=O)(=O)c1ccccc1 | -7.96%
29 | Cc1cnc(C(=O)N2CCCCC2c2nc(C)cs2)cn1 (stereo not given) | -0.288%
30 | N#CC1(C(=O)N2C[C@H](Nc3ncccn3)[C@@H](C3CC3)C2)CCOCC1 | -15.6%
31 | Cc1cccc(CN2CCC(c3csc4nccn34)CC2)n1 | 0.645%
32 | Cc1cc(C)c2c(c1)C(NC(=O)CSCC(N)=O)CCO2 (stereo not given) | -9.85%
33 | Cc1ccccc1-c1csc2c(=O)[nH]c(N3CCCC(C(=O)O)C3)nc12 (stereo not given) | 14.6%
34 | CN1Cc2c(C(=O)N3CCOCC3)ncn2-c2ccccc2S1(=O)=O | -1.47%
35 | CC(=O)c1sc(Nc2ccc(Cl)cn2)nc1C | 31.3%
36 | O=C(O)C1CCCN(C(=O)CCn2ccc3c(Cl)cccc32)C1 (stereo not given) | -17.2%
37 | COCc1noc(-c2ccc(N(C)Cc3cc(C)no3)nc2)n1 | -6.05%
38 | CCN(CC)C(CNC(=O)c1ccc(S(=O)(=O)NC)cc1)c1ccco1 (stereo not given) | 0.103%
39 | Cc1cc(NC(=O)CN2CCn3c(nnc3C(C)C)C2)n(C)n1 | 34.7%
40 | COc1ccccc1C1=NOC(CC2(C(=O)O)CCOCC2)C1 (stereo not given) | 19.1%
41 | CNC(=O)N(Cc1c(F)cccc1F)C1CCCC1 | -3.72%
42 | CS(=O)(=O)CCn1ccc(NC(=O)c2c(F)cccc2F)n1 | -12.1%
43 | CN1CC(c2ccccc2)CC12CCN(C(=O)c1cccnc1)CC2 (stereo not given) | -9.06%
44 | CCC(=O)Nc1cccc(OCC(=O)N2C[C@H]3CC[C@H]2C3)c1 | -18.9%
45 | O=C(NCC1CC1)C1CCCN(c2cccc(C(F)(F)F)n2)C1 (stereo not given) | 19.6%
